The target in test [1] is T1, Estrogen receptor beta (Homo sapiens, UniProt Q92731).
The target of test [2] is T1, Estrogen receptor beta. The test can be described thus: Agonist activity at human ER-beta transfected in human 293 cells assessed as ALP reporter protein expression after 72 hrs by chemiluminescence assay. The test is classed as cell-based.
The target of a further test is T2, Estrogen receptor (Homo sapiens, UniProt P03372).
T2 sequence (P03372 whole entry): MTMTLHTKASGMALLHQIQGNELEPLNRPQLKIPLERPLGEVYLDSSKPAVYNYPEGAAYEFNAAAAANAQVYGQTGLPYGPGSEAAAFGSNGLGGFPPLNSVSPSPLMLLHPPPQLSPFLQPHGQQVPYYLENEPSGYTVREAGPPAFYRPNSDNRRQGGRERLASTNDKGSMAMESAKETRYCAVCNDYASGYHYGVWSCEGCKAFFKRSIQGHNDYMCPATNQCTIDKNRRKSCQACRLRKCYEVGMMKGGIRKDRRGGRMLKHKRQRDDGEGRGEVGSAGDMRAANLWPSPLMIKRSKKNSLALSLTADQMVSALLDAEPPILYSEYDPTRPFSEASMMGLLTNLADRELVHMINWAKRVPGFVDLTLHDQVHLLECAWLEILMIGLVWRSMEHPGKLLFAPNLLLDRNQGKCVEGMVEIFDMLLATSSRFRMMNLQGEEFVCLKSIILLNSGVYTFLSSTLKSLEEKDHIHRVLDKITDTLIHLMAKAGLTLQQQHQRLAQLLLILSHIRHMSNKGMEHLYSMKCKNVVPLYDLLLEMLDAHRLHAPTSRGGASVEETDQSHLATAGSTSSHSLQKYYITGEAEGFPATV

Test [3] has as its target T1, Estrogen receptor beta. The test can be described thus: Agonist activity at ER-beta (unknown origin) transfected in HEK293T cells after 24 hrs by Steady-Glo luciferase reporter gene assay relative to estradiol. The test is classed as cell-based. As to conditions: HEK-293T.

Some results are limits rather than exact numbers.

T1 sequence (Q92731 whole entry): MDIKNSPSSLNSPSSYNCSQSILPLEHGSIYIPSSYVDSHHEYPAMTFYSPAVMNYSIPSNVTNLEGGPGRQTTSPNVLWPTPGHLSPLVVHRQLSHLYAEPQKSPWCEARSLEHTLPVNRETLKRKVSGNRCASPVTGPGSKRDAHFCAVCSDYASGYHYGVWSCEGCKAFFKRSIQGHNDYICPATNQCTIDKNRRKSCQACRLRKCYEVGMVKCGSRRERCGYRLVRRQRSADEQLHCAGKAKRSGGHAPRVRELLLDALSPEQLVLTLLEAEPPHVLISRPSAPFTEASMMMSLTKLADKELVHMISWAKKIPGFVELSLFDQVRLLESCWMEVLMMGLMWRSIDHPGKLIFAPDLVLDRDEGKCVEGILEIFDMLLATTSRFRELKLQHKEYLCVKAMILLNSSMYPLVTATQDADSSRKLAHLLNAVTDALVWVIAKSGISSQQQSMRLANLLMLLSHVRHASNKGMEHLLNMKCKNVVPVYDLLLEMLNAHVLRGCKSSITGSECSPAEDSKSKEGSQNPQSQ

At Estrogen receptor beta [1], `C[C@]12CC[C@@H]3c4ccc(O)cc4CC[C@H]3[C@@H]1C[C@@H](O)[C@@H]2O` [ESTRIOL] had an EC50 of 0.126 nM.
On to `C[C@]12CC[C@@H]3c4ccc(O)cc4CC[C@H]3[C@@H]1C[C@H](O)[C@H]2O`, for which the EC50 on Estrogen receptor beta [2] amounted to 11 nM.
As for `C[C@]12CC[C@@H](c3ccc(O)cc3)C[C@H]1CCC2=O`, the half-maximal effective concentration (EC50) is 7940 nM at Estrogen receptor and 126 nM at Estrogen receptor beta [1]. In addition, the Efficacy at Estrogen receptor beta [3] amounted to 144%.
For `C[C@]12CC[C@H](c3ccc(O)cc3)C[C@H]1CCC2=O`, the figures for the concentration for a half-maximal effect (EC50) at Estrogen receptor and on Estrogen receptor beta [1] were more than 10000 nM and 251 nM, respectively. On Estrogen receptor beta [3], this molecule yielded an Efficacy of 148%.
Take `C[C@]12CCC(c3ccc(O)cc3)C[C@H]1CC[C@@H]2O` (some centres undefined): the EC50 was 31.6 nM at Estrogen receptor and 0.398 nM on Estrogen receptor beta [1]. In addition, the Efficacy at Estrogen receptor beta [3] worked out at 127%.
For `C[C@]12CC[C@H](c3ccc(O)cc3)C[C@H]1C[C@H](O)[C@H]2O`, the concentration giving a half-maximal response (EC50) was 10000 nM on Estrogen receptor and 20 nM at Estrogen receptor beta [1]. Also, the Efficacy on Estrogen receptor beta [3] stood at 108%.

Values taken from ChEMBL document CHEMBL3132860 (Medchemcomm, 2013).
